Assay results from publication PMC12645137 (Current Neuropharmacology, 2025).

Columns and labels:
[1] = biological target: T1, AChE (source Electric eel) (Electrophorus electricus, UniProt O42275); assay: biochemical
T1 construct: from tissue
Experimental: (§1) The cholinesterase inhibitory potentials of our synthesized compounds were evaluated against cholinesterase enzymes (AChE/BChE). The AChE (source Electric eel) and BChE (source equine serum) were used in the study following previously published Ellman's assay. The assay basic principle involves the hydrolytic breakdown of acetylthiocholine iodide (ATChI) by AChE and butyryl thiocholine iodide (BTChI) by BChE enzymes, leading to the formation of an intermediate compound which is subsequently complexed with 5,5-dithio bis nitrobenzoic acid (DTNB) to form a UV-detectable compound. The yellowish color product indicates the hydrolysis of ATChI and BTChI substrates by respective enzymes, which were analyzed at 412 nm using a UV-visible spectrophotometer. […] A test sample of 1000 µl was taken in a cuvette, to which enzyme solution (50 µl) and DTNB reagent of 50 µL were added. The AChE (0.03 U/ml) and BChE (0.01 U/ml) solutions were prepared in 0.1 M phosphate buffer having pH 8.0. The ATChI and BTChI substrate solutions (0.0005 M) and 0.0002273 M solution of DTNB were prepared using distilled water and stored at 8°C before further use. For 15 minutes, the solution mixture was incubated at 30 °C, after which a solution of the substrate (50 µl) was added and then subjected to spectroscopic analysis. Using a double beam spectrophotometer, the sample absorbance was measured for 4 minutes at 412 nm beside the time of reaction. […] All values were taken in triplicate under the same conditions.
(§2) Enzymatic activity percentage=V/Vmaxx100
(§3) V is the reaction rate in the inhibitor's presence, whereas Vmax is the reaction rate in the absence of the inhibitor.

[2] = biological target: T2, BChE (source equine serum) (Equus caballus, UniProt P81908); assay: biochemical
T2 construct: from tissue; host or cells: equine serum
T2 sequence (P81908 whole entry): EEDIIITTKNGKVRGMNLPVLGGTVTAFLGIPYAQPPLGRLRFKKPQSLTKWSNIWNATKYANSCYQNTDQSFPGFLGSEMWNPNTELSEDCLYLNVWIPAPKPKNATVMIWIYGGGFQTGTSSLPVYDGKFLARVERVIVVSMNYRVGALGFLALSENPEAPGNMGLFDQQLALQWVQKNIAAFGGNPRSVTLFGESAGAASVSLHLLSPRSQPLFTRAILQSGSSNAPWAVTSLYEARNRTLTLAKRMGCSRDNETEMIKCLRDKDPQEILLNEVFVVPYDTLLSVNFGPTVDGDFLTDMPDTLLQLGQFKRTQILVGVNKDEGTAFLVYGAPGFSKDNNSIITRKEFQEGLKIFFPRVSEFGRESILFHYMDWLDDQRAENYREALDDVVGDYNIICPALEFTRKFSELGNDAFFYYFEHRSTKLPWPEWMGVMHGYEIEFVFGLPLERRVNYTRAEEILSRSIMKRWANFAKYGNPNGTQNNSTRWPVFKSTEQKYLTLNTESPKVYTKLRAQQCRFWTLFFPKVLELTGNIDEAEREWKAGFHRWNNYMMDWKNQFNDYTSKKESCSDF
Experimental: as §1, §2, §3

T1 sequence (O42275 24-633): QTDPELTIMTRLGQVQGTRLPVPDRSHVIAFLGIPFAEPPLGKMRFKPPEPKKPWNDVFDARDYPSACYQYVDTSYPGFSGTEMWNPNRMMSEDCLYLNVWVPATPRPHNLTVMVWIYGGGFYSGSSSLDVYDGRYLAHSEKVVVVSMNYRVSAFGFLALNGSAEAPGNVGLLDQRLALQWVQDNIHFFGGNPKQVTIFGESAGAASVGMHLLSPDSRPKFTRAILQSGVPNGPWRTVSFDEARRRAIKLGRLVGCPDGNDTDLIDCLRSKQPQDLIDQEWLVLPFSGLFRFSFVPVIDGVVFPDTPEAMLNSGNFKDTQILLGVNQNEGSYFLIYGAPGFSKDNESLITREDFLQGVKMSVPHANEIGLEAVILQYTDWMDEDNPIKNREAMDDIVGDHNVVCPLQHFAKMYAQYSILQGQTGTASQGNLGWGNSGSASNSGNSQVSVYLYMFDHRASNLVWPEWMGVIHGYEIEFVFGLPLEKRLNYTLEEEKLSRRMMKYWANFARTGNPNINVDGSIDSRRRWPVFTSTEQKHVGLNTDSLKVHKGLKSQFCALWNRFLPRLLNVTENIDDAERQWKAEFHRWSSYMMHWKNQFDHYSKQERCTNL

## COc1ccc(C/N=C(/C)[C@H]2CC[C@H]3[C@@H]4CCC5=CC(=O)CC[C@]5(C)[C@H]4CC[C@]23C)cc1 [AN1, (8S,9S,10R,13S,14S)-17-((Z)-1-((4-methoxybenzyl)imino)ethyl)-10,13-dimethyl-1,2,6,7,8,9,10,11,12,13,14,15,16,17-tetradecahydro-3H-cyc-lopenta[a]phenanthren-3-one]
[1]
  IC50: 56.5 µM
[1]; read-out: % AChE Inhibition
  inhibition at 125 µg/mL: 69.4%
  inhibition at 250 µg/mL: 76.3%
  inhibition at 500 µg/mL: 83.2%
  inhibition at 1000 µg/mL: 88.9 ± 1.2%
[2]
  IC50: 43.3 µM
[2]; read-out: % BChE Inhibition
  inhibition at 62.5 µg/mL: 61.5%
  inhibition at 125 µg/mL: 68.3%
  inhibition at 250 µg/mL: 71.9%
  inhibition at 500 µg/mL: 80.4%
  inhibition at 1000 µg/mL: 86.8 ± 1.24%
